Source: patent US10035790B2, “RORγ modulators” (BRISTOL-MYERS SQUIBB COMPANY, priority 2012, dated 2018)

Biological target: T1, ligand binding domain of human RORγ (A262-S507) (Homo sapiens, UniProt P51449)
T1 construct: made in house; host or cells: E. coli
T1 sequence (P51449 262-507): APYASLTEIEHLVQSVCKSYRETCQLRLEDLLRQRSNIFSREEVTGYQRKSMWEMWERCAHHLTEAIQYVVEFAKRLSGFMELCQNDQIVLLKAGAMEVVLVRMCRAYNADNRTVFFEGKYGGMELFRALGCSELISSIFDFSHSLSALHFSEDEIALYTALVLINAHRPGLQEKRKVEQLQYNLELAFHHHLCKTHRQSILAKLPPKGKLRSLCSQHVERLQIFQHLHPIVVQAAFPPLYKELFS
Assay: General RORγ SPA binding assay (competition with [3H]25-hydroxycholesterol)
Conditions: RORγ SPA binding assay, inhibition of [3H]25-hydroxycholesterol binding; read-out: IC50
Summary of the method: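 Scintillation counts from copper His-tag SPA beads (4 mg/mL, 30 min) gave percent inhibition of radioligand binding, from which IC50 values are derived. The E. coli-expressed His-tagged domain (50 nM) is first exposed to compound for 15 min at room temperature in PBS containing 0.5% fatty acid free BSA.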

Row | Structure (SMILES) | IC50 [nM]
1 | COc1cccc(CNC(=O)c2cnc(C)nc2C2CCN(C(=O)Cc3c(F)cccc3F)CC2)c1 [Compound A58, 4-(1-(2-(2,6-difluorophenyl)acetyl)piperidin-4-yl)-N-(3-methoxybenzyl)-2-methylpyrimidine-5-carboxamide] | 24.3
2 | C/C(=N\Oc1cccc(Cl)c1)c1cnc(C)nc1C1CCN(C(=O)Cc2c(F)cccc2F)CC1 [Compound B5, (E)-1-(4-(5-(1-((3-chlorophenoxy)imino)ethyl)-2-methylpyrimidin-4-yl)piperidin-1-yl)-2-(2,6-difluorophenyl)ethanone] | 2.5
3 | Cc1cc(C)cc(CCCc2cnc(C)nc2C2CCN(C(=O)Cc3c(F)cccc3F)CC2)c1 [Compound J3, 2-(2,6-Difluorophenyl)-1-(4-(5-(3-(3,5-dimethylphenyl)propyl)-2-methylpyrimidin-4-yl)piperidin-1-yl)ethanone] | 7.7
4 | C/C(=N/Oc1ccnc(C(F)(F)F)c1)c1c(C)nc(C)nc1C1CCN(C(=O)Cc2c(F)cccc2F)CC1 [Compound B2, (1Z)-1-(4-{1-[(2,6-Difluorophenyl)acetyl]piperidin-4-yl}-2,6-dimethylpyrimidin-5-yl)ethanone 0-[2-(trifluoromethyl)pyridin-4-yl]oxime] | 444
5 | Cc1ncc(C(CF)=NOc2ccnc(C(F)(F)F)c2)c(C2CCN(C(=O)Cc3c(F)cccc3F)CC2)n1 [Compound B24, (1Z)-1-(4-{1-[(2,6-Difluorophenyl)acetyl]piperidin-4-yl}-2-methylpyrimidin-5-yl)-2-fluoroethanone 0-[2-(trifluoromethyl)pyridin-4-yl]oxime] | 8.7
6 | CC(C)c1ncc(C(=O)NCc2ccc(Cl)c(Cl)c2)c(C2CCN(C(=O)Cc3ccccc3F)CC2)n1 [Compound A36, N-(3,4-dichlorobenzyl)-4-(1-(2-(2-fluorophenyl)acetyl)piperidin-4-yl)-2-isopropylpyrimidine-5-carboxamide] | 3330
7 | Cc1ncc(/C(CF)=N/Oc2ccnc(C(F)(F)F)n2)c(C2CCN(C(=O)Cc3c(F)cccc3F)CC2(F)F)n1 (stereo not shown) [Compound B35, (Z)-1-(3,3-Difluoro-4-(5-(2-fluoro-1-(2-(trifluoromethyl)pyrimidin-4-yloxyimino)ethyl)-2-methylpyrimidin-4-yl)piperidin-1-yl)-2-(2,6-difluorophenyl)ethanone] | 14.2
8 | Cc1cc(C)cc(CNCc2cnc(C)nc2C2CCN(C(=O)Cc3c(F)cccc3F)CC2)c1 [Compound F6, 2-(2,6-Difluorophenyl)-1-(4-(5-((3,5-dimethylbenzylamino)methyl)-2-methylpyrimidin-4-yl)piperidin-1-yl)ethanone] | 44.2
9 | CC(=O)Nc1nc(C)c(C(O)COc2cccc(C(F)(F)F)n2)c(C2CCN(C(=O)Nc3c(F)cccc3F)CC2)n1 (stereo not shown) [Compound N10, 4-[2-(Acetylamino)-5-(1-hydroxy-2-{1-[6-(trifluoromethyl)pyridin-2-yl]oxy}ethyl)-6-methylpyrimidin-4-yl]-N-(2,6-difluorophenyl)piperidine-1-carboxamide] | 20.9
10 | Cc1ncc(C(=O)NOc2cccc(OC(F)(F)F)c2)c(C2CCN(C(=O)Cc3c(F)cccc3F)CC2)n1 [Compound H4, 4-(1-(2-(2,6-difluorophenyl)acetyl)piperidin-4-yl)-2-methyl-N-(3-(trifluoromethoxy)phenoxy)pyrimidine-5-carboxamide] | 294
11 | Cc1ncc(C(F)(F)CNc2ccnc(C(F)(F)F)n2)c(C2CCN(C(=O)Nc3c(F)cccc3F)CC2)n1 [Compound N18, N-(2,6-Difluorophenyl)-4-[5-(1,1-difluoro-2-{[2-(trifluoromethyl)pyrimidin-4-yl]amino}ethyl)-2-methylpyrimidin-4-yl]piperidine-1-carboxamide] | 16.2
12 | Cc1ncc(C(C)(C)CNc2ccnc(C(F)(F)F)n2)c(C2CCN(C(=O)Cc3c(F)cccc3F)CC2)n1 [Compound F1, 2-(2,6-Difluorophenyl)-1-(4-(2-methyl-5-(2-methyl-1-(2-(trifluoromethyl)pyrimidin-4-ylamino)propan-2-yl)pyrimidin-4-yl)piperidin-1-yl)ethanone] | 76
13 | Cc1ncc(C(C)(O)CNc2ccn(C)n2)c(C2CCN(C(=O)Cc3c(F)cccc3F)CC2)n1 (stereo not shown) [Compound D10, 2-(2,6-difluorophenyl)-1-(4-(5-(2-hydroxy-1-((1-methyl-1H-pyrazol-3-yl)amino)propan-2-yl)-2-methylpyrimidin-4-yl)piperidin-1-yl)ethanone] | 4380
14 | Cc1cc(C)cc(ONC(=O)c2cnc(C)nc2C2CCN(C(=O)Cc3c(F)cccc3F)CC2)c1 [Compound H2, 4-(1-(2-(2,6-difluorophenyl)acetyl)piperidin-4-yl)-N-(3,5-dimethylphenoxy)-2-methylpyrimidine-5-carboxamide] | 49
15 | C/C(=N\Oc1cc(C)nc(C(F)(F)F)n1)c1cnc(C)nc1C1CCN(C(=O)Nc2c(F)cccc2F)CC1 [Compound B42, N-(2,6-difluorophenyl)-4-{2-methyl-5-[(1E)-N-{[6-methyl-2-(trifluoromethyl)pyrimidin-4-yl]oxy}ethanimidoyl]pyrimidin-4-yl}piperidine-1-carboxamide] | 151
16 | Cc1cc(C)cc(CNC(=O)c2cnc(C)nc2C2CCN(C(=O)Cc3cccc(C)c3)CC2)c1 [Compound A30, N-(3,5-dimethylbenzyl)-2-methyl-4-(1-(2-(m-tolyl)acetyl)piperidin-4-yl) pyrimidine-5-carboxamide] | 1450
17 | Cc1cc(C)cc(C(=O)NCc2cnc(C)nc2C2CCN(C(=O)Cc3c(F)cccc3F)CC2)c1 [Compound K1, N-((4-(1-(2-(2,6-Difluorophenyl)acetyl)piperidin-4-yl)-2-methylpyrimidin-5-yl)methyl)-3,5-dimethylbenzamide] | 4110
18 | Cc1cc(C)cc(CNC(=O)c2cnc(C)nc2C2CCN(CC(=O)c3ccccc3Cl)CC2)c1 [Compound A115, 4-(1-(2-(2-Chlorophenyl)-2-oxoethyl)piperidin-4-yl)-N-(3,5-dimethylbenzyl)-2-methylpyrimidine-5-carboxamide] | 342
19 | Cc1cc(C)cc(CNC(=O)c2c(C(C)C)nc(C)nc2C2CCN(C(=O)Cc3c(F)cccc3F)CC2)c1 [Compound A84, 4-(1-(2-(2,6-difluorophenyl)acetyl)piperidin-4-yl)-N-(3,5-dimethylbenzyl)-6-isopropyl-2-methylpyrimidine-5-carboxamide] | 1650
20 | CC(O)(COc1ccnc(C(F)(F)F)n1)c1cnc(OC(CF)CF)nc1C1CCN(C(=O)Nc2c(F)cccc2F)CC1 (stereo not shown) [Compound D42, N-(2,6-Difluorophenyl)-4-[2-{[2-fluoro-1-(fluoromethyl)ethyl]oxy}-5-(1-hydroxy-1-methyl-2-{[2-(trifluoromethyl)pyrimidin-4-yl]oxy}ethyl)pyrimidin-4-yl]piperidine-1-carboxamide] | 348
21 | Cc1ncc(C(=O)NOc2ccccc2)c(C2CCN(C(=O)Cc3c(F)cccc3F)CC2)n1 [Compound H7, 4-(1-(2-(2,6-difluorophenyl)acetyl)piperidin-4-yl)-2-methyl-N-phenoxypyrimidine-5-carboxamide] | 1750
22 | Cc1nc(C)c(C(O)COc2cccc(C(F)(F)F)n2)c(C2CCN(C(=O)Nc3c(F)cccc3F)CC2)n1 (stereo not shown) [Compound N6, N-(2,6-Difluorophenyl)-4-[5-(1-hydroxy-2-{[6-(trifluoromethyl)pyridin-2-yl]oxy}ethyl)-2,6-dimethylpyrimidin-4-yl]piperidine-1-carboxamide] | 4
23 | Cc1cc(C)cc(CNC(=O)c2cnc(C)nc2C2CCN(C(=O)c3ncccc3Cl)CC2)c1 [Compound A33, 4-(1-(3-chloropicolinoyl)piperidin-4-yl)-N-(3,5-dimethylbenzyl)-2-methylpyrimidine-5-carboxamide] | 1950
24 | Cc1ncc(/C(CF)=N/Oc2ccnc(C(F)(F)F)n2)c(C2CCN(C(=O)Cc3c(F)cccc3F)CC2)n1 [Compound B27, (Z)-2-(2,6-difluorophenyl)-1-(4-(5-(2-fluoro-1-(((2-(trifluoromethyl)pyrimidin-4-yl)oxy)imino)ethyl)-2-methylpyrimidin-4-yl)piperidin-1-yl)ethanone] | 35.8
25 | CC(=O)NCC(O)(COc1cccc(C(F)(F)F)n1)c1cnc(C)nc1C1CCN(C(=O)Oc2c(F)cccc2F)CC1 (stereo not shown) [Compound N47, 2,6-Difluorophenyl 4-{5-[2-(acetylamino)-1-hydroxy-1-({[6-(trifluoromethyl)pyridin-2-yl]oxy}methyl)ethyl]-2-methylpyrimidin-4-yl}piperidine-1-carboxylate] | 3.6
26 | Cc1nc(C)c(/C=N/Oc2cccc(C(F)(F)F)c2)c(C2CCN(C(=O)Nc3c(F)cccc3F)CC2)n1 [Compound B46, N-(2,6-Difluorophenyl)-4-{2,6-dimethyl-5-[(E)-({[3-(trifluoromethyl)phenyl]oxy}imino)methyl]pyrimidin-4-yl}piperidine-1-carboxamide] | 106
27 | Cc1ncc(/C(CO)=N/Oc2cccc(C(F)(F)F)c2)c(C2CCN(C(=O)Cc3c(F)cccc3F)CC2)n1 [Compound B28, (Z)-2-(2,6-difluorophenyl)-1-(4-(5-(2-hydroxy-1-((3-(trifluoromethyl)phenoxy)imino)ethyl)-2-methylpyrimidin-4-yl)piperidin-1-yl)ethanone] | 696
28 | Cc1nc(C)c(-c2nnc(-c3ccnc(C(F)(F)F)n3)o2)c(C2CCN(C(=O)Nc3c(Cl)cccc3Cl)CC2)n1 [Compound C31, N-(2,6-dichlorophenyl)-4-(2,6-dimethyl-5-{5-[2-(trifluoromethyl)pyrimidin-4-yl]-1,3,4-oxadiazol-2-yl}pyrimidin-4-yl)piperidine-1-carboxamide] | 49.6
